Laboratory results from patent US8063048B2, “Acetylenyl-pyrazolo-pyrimidine derivatives” (Hoffmann-La Roche Inc., priority 2005, dated 2011).

Row | Structure (SMILES) | melting point [°C]
1 | Cc1cc(-c2cc(C(F)(F)F)n3ncc(C#Cc4ncc(S(N)(=O)=O)s4)c3n2)ccc1Cl [Example 104, 2-[5-(4-Chloro-3-methyl-phenyl)-7-trifluoromethyl-pyrazolo[1,5-a]pyrimidin-3-ylethynyl]-thiazole-5-sulfonic acid amide] | 123
2 | NS(=O)(=O)c1cnc(C#Cc2cnn3c(C(F)(F)F)cc(-c4cccc(C(F)(F)F)c4)nc23)s1 [Example 105, 2-[7-Trifluoromethyl-5-(3-trifluoromethyl-phenyl)-pyrazolo[1,5-a]pyrimidin-3-ylethynyl]-thiazole-5-sulfonic acid amide] | 251
3 | Cc1cc(-c2cc(C(F)(F)F)n3ncc(C#Cc4ncc(S(=O)(=O)NC(C)(C)CO)s4)c3n2)ccc1Cl [Example 106, 2-[5-(4-Chloro-3-methyl-phenyl)-7-trifluoromethyl-pyrazolo[1,5-a]pyrimidin-3-ylethynyl]-thiazole-5-sulfonic acid (2-hydroxy-1,1-dimethyl-ethyl)-amide] | 217
4 | CC(C)(CO)NS(=O)(=O)c1cccc(C#Cc2cnn3c(C(F)(F)F)cc(-c4cccc(C(F)(F)F)c4)nc23)c1 [Example 107, N-(2-Hydroxy-1,1-dimethyl-ethyl)-3-[7-trifluoromethyl-5-(3-trifluoromethyl-phenyl)-pyrazolo[1,5-a]pyrimidin-3-ylethynyl]-benzenesulfonamide] | 132
5 | CC(C)(C)NS(=O)(=O)c1ccc(C#Cc2cnn3c(C(F)(F)F)cc(-c4ccc(C(F)(F)F)cc4)nc23)s1 [Example 109, 5-[7-Trifluoromethyl-5-(4-trifluoromethyl-phenyl)-pyrazolo[1,5-a]pyrimidin-3-ylethynyl]-thiophene-2-sulfonic acid tert-butylamide] | 226
6 | Cc1cc(-c2cc(C(F)(F)F)n3ncc(C#Cc4ccc(S(N)(=O)=O)cc4)c3n2)ccc1Cl [Example 110, 4-[5-(4-Chloro-3-methyl-phenyl)-7-trifluoromethyl-pyrazolo[1,5-a]pyrimidin-3-ylethynyl]-benzenesulfonamide] | 275
7 | Cc1cc(-c2cc(C(F)(F)F)n3ncc(C#Cc4cc(S(N)(=O)=O)c(F)cc4F)c3n2)ccc1Cl [Example 111, 5-[5-(4-Chloro-3-methyl-phenyl)-7-trifluoromethyl-pyrazolo[1,5-a]pyrimidin-3-ylethynyl]-2,4-difluoro-benzenesulfonamide] | 294
8 | Cc1cc(-c2cc(C(F)(F)F)n3ncc(C#Cc4cccc(S(N)(=O)=O)c4)c3n2)ccc1Cl [Example 112, 3-[5-(4-Chloro-3-methyl-phenyl)-7-trifluoromethyl-pyrazolo[1,5-a]pyrimidin-3-ylethynyl]-benzenesulfonamide] | 234
9 | NS(=O)(=O)c1ccc(C#Cc2cnn3c(C(F)(F)F)cc(-c4cccc(C(F)(F)F)c4)nc23)cc1 [Example 113, 4-[7-Trifluoromethyl-5-(3-trifluoromethyl-phenyl)-pyrazolo[1,5-a]pyrimidin-3-ylethynyl]-benzenesulfonamide] | 264
10 | Cc1cc(-c2cc(C(F)(F)F)n3ncc(C#Cc4ccc(S(N)(=O)=O)s4)c3n2)ccc1Cl [Example 114, 5-[5-(4-Chloro-3-methyl-phenyl)-7-trifluoromethyl-pyrazolo[1,5-a]pyrimidin-3-ylethynyl]-thiophene-2-sulfonic acid amide] | 216
11 | Cc1cc(-c2cc(C(F)(F)F)n3ncc(C#Cc4ccc(S(=O)(=O)NC(C)(C)C)s4)c3n2)ccc1Cl [Example 115, 5-[5-(4-Chloro-3-methyl-phenyl)-7-trifluoromethyl-pyrazolo[1,5-a]pyrimidin-3-ylethynyl]-thiophene-2-sulfonic acid tert-butylamide] | 244
12 | NS(=O)(=O)c1cc(C#Cc2cnn3c(C(F)(F)F)cc(-c4cccc(C(F)(F)F)c4)nc23)c(F)cc1F [Example 116, 2,4-Difluoro-5-[7-trifluoromethyl-5-(3-trifluoromethyl-phenyl)-pyrazolo[1,5-a]pyrimidin-3-ylethynyl]-benzenesulfonamide] | 264
13 | CC(C)(C)NS(=O)(=O)c1ccc(C#Cc2cnn3c(C(F)(F)F)cc(-c4cccc(C(F)(F)F)c4)nc23)s1 [Example 117, 5-[7-Trifluoromethyl-5-(3-trifluoromethyl-phenyl)-pyrazolo[1,5-a]pyrimidin-3-ylethynyl]-thiophene-2-sulfonic acid tert-butylamide] | 168
14 | NS(=O)(=O)c1cccc(C#Cc2cnn3c(C(F)(F)F)cc(-c4cccc(C(F)(F)F)c4)nc23)c1 [Example 118, 3-[7-Trifluoromethyl-5-(3-trifluoromethyl-phenyl)-pyrazolo[1,5-a]pyrimidin-3-ylethynyl]-benzenesulfonamide] | 193
15 | NS(=O)(=O)c1ccc(C#Cc2cnn3c(C(F)(F)F)cc(-c4cccc(C(F)(F)F)c4)nc23)s1 [Example 119, 5-[7-Trifluoromethyl-5-(3-trifluoromethyl-phenyl)-pyrazolo[1,5-a]pyrimidin-3-ylethynyl]-thiophene-2-sulfonic acid amide] | 250
16 | CC(C)(CO)NS(=O)(=O)c1ccc(C#Cc2cnn3c(C(F)(F)F)cc(-c4ccc(C(F)(F)F)cc4)nc23)s1 [Example 120, 5-[7-Trifluoromethyl-5-(4-trifluoromethyl-phenyl)-pyrazolo[1,5-a]pyrimidin-3-ylethynyl]-thiophene-2-sulfonic acid (2-hydroxy-1,1-dimethyl-ethyl)-amide] | 272
17 | CN(C)S(=O)(=O)c1ccc(C#Cc2cnn3c(C(F)(F)F)cc(-c4ccc(C(F)(F)F)cc4)nc23)cc1 [Example 121, N,N-Dimethyl-4-[7-trifluoromethyl-5-(4-trifluoromethyl-phenyl)-pyrazolo[1,5-a]pyrimidin-3-ylethynyl]-benzenesulfonamide] | 226 to 227
18 | O=S(=O)(c1ccc(C#Cc2cnn3c(C(F)(F)F)cc(-c4ccc(C(F)(F)F)cc4)nc23)cc1)N1CCOCC1 [Example 122, 3-[4-(Morpholine-4-sulfonyl)-phenylethynyl]-7-trifluoromethyl-5-(4-trifluoromethyl-phenyl)-pyrazolo[1,5-a]pyrimidine] | 229 to 231
19 | CNS(=O)(=O)c1ccc(C#Cc2cnn3c(C(F)(F)F)cc(-c4ccc(C(F)(F)F)cc4)nc23)cc1 [Example 123, N-Methyl-4-[7-trifluoromethyl-5-(4-trifluoromethyl-phenyl)-pyrazolo[1,5-a]pyrimidin-3-ylethynyl]-benzenesulfonamide] | 231 to 233
20 | COCCNS(=O)(=O)c1ccc(C#Cc2cnn3c(C(F)(F)F)cc(-c4ccc(C(F)(F)F)cc4)nc23)cc1 [Example 124, N-(2-Methoxy-ethyl)-4-[7-trifluoromethyl-5-(4-trifluoromethyl-phenyl)-pyrazolo[1,5-a]pyrimidin-3-ylethynyl]-benzenesulfonamide] | 185 to 187
21 | O=S(=O)(NCCO)c1ccc(C#Cc2cnn3c(C(F)(F)F)cc(-c4ccc(C(F)(F)F)cc4)nc23)cc1 [Example 125, N-(2-Hydroxy-ethyl)-4-[7-trifluoromethyl-5-(4-trifluoromethyl-phenyl)-pyrazolo[1,5-a]pyrimidin-3-ylethynyl]-benzenesulfonamide] | 206 to 208
22 | CN(C)CCNS(=O)(=O)c1ccc(C#Cc2cnn3c(C(F)(F)F)cc(-c4ccc(C(F)(F)F)cc4)nc23)cc1 [Example 126, N-(2-Dimethylamino-ethyl)-4-[7-trifluoromethyl-5-(4-trifluoromethyl-phenyl)-pyrazolo[1,5-a]pyrimidin-3-ylethynyl]-benzenesulfonamide] | 193 to 194
23 | Cc1cc(C#Cc2cnn3c(C(F)(F)F)cc(-c4ccc(C(F)(F)F)cc4)nc23)cnc1N [Example 127, 3-Methyl-5-[7-trifluoromethyl-5-(4-trifluoromethyl-phenyl)-pyrazolo[1,5-a]pyrimidin-3-ylethynyl]-pyridin-2-ylamine] | 233 to 234
24 | Cc1nc(N)ccc1C#Cc1cnn2c(C(F)(F)F)cc(-c3ccc(C(F)(F)F)cc3)nc12 [Example 128, 6-Methyl-5-[7-trifluoromethyl-5-(4-trifluoromethyl-phenyl)-pyrazolo[1,5-a]pyrimidin-3-ylethynyl]-pyridin-2-ylamine] | 251 to 254
25 | O=S(=O)(c1cccc(C#Cc2cnn3c(C(F)(F)F)cc(-c4ccc(C(F)(F)F)cc4)nc23)c1)N1CCOCC1 [Example 129, 3-[3-(morpholine-4-sulfonyl)-phenylethynyl]-7-trifluoromethyl-5-(4-trifluoromethyl-phenyl)-pyrazolo[1,5-a]pyrimidine] | 203 to 204
26 | CNS(=O)(=O)c1cccc(C#Cc2cnn3c(C(F)(F)F)cc(-c4ccc(C(F)(F)F)cc4)nc23)c1 [Example 130, N-Methyl-3-[7-trifluoromethyl-5-(4-trifluoromethyl-phenyl)-pyrazolo[1,5-a]pyrimidin-3-ylethynyl]-benzenesulfonamide] | 213 to 214
27 | COCCNS(=O)(=O)c1cccc(C#Cc2cnn3c(C(F)(F)F)cc(-c4ccc(C(F)(F)F)cc4)nc23)c1 [Example 131, N-(2-Methoxy-ethyl)-3-[7-trifluoromethyl-5-(4-trifluoromethyl-phenyl)-pyrazolo[1,5-a]pyrimidin-3-ylethynyl]-benzenesulfonamide] | 186 to 188
28 | O=S(=O)(NCCO)c1cccc(C#Cc2cnn3c(C(F)(F)F)cc(-c4ccc(C(F)(F)F)cc4)nc23)c1 [Example 132, N-(2-Hydroxy-ethyl)-3-[7-trifluoromethyl-5-(4-trifluoromethyl-phenyl)-pyrazolo[1,5-a]pyrimidin-3-ylethynyl]-benzenesulfonamide] | 213
29 | CN(C)CCNS(=O)(=O)c1cccc(C#Cc2cnn3c(C(F)(F)F)cc(-c4ccc(C(F)(F)F)cc4)nc23)c1 [Example 133, N-(2-Dimethylamino-ethyl)-3-[7-trifluoromethyl-5-(4-trifluoromethyl-phenyl)-pyrazolo[1,5-a]pyrimidin-3-ylethynyl]-benzenesulfonamide] | 146 to 147
